The values below come from patent US8883437B2, “Nitroreductase enzymatic substrates” (bioMérieux S.A., priority 2010, dated 2014).

In one experiment the test system is E. cloacae NCTC 11936. Put plainly: Nitroreductase substrate in Columbia medium, growth and colony color. Type of experiment: cell-based. The following applies: 40 mg substrate in 400 ml Columbia medium, 24 hours at 37° C., colonies examined visually. The procedure:
(§1) 40 mg of substrate were dissolved in 4 ml of dimethylsulfoxide and added to 400 ml of previously autoclaved Columbia medium. The medium was distributed in Petri dishes 90 mm in diameter at the rate of 20 ml per dish. Ten strains of microorganisms obtained from collections and belonging to various species of bacteria and yeasts are inoculated as spots of about 10 000 colony forming units. The media are incubated for 24 hours at 37° C. and then the colonies formed are examined visually.

The test system of another experiment is P. rettgeri NCTC 7475. The experiment is described as above. Type of experiment: cell-based. The following applies: 40 mg substrate in 400 ml Columbia medium, 24 hours at 37° C., colonies examined visually. The procedure:
as §1

As to `C[N+]1=C(C=Cc2ccc([N+](=O)[O-])cc2)C(C)(C)c2ccccc21.[I-]` [Iodinated 2-(4-nitrostyryl)-1,3,3-trimethylindolinium], the Color result in the experiment with E. cloacae NCTC 11936 and with P. rettgeri NCTC 7475 was “Pale pink” each time.
